According to patent US20160184274A1, “Methods for inhibiting mesenchymal phenotype after epithelial-to-mesenchymal transition” (Fibrostatin, S.L., priority 2014, published 2016):

Test system: A549 cells expressing GPBP-EYFP
Assay: GPBP-induced phenotype transition, Western blot of markers
Assay type: cell-based, Human
Settings: T12 10 μM, 24 h; FIG. 4
Procedure: FIG. 4. T12 inhibits GPBP-induced phenotype transition in A549 cultures. A549 cells expressing either GPBP-EYFP fusion protein or EYFP were cultured during 24 h in the presence (+) or absence (−) of T12 (10 μM.) Then cells were lysed and similar amounts of lysates were analyzed by Western blot with antibodies against the indicated proteins. Loading equivalence was confirmed by tubulin expression analysis in each of the individual experiments (not shown). To generate cells expressing GPBP fused to Enhanced Yellow Fluorescent Protein (GPBP-EYFP) or EYFP, A549 cells were transfected either with pEYFP-N1-GPBP construct or with pEYFP-N1 vector (Clontech), expressing GPBP-EYFP and EYFP, respectively. Transfected cells were selected with 400 mg/L of geniticin and clones were isolated with a High SPEED CELL SORTER MOFLO® (Beckman-Coulter) and further cultured. Recombinant protein expression was assessed by immunofluorescence microscopy and by Western blot with anti-GPBP N27 mouse monoclonal antibodies. For Western blot analysis, cells were lysed in TBS supplemented with 1% Triton X-100, 0.1% SDS, 1 mM PMSF, 10 μg/mL leupeptine and 20 mM NaF during 30 min at 4° C. Lysates were centrifuged (16,000×g, 5 min, 4° C.) and supernatants were collected and protein concentration determined (Bio-Rad Protein Assay). Samples were subjected to reducing SDS-PAGE and electro-transference onto PVDF membrane. […]

Q: For `COc1ccc(-c2ccc(-c3cccc(C)c3)c(C)c2)c(CCC(=O)O)c1` [T12, 3-[4″-methoxy-3,2′-dimethyl-(1,1′;4′,1″)terphenyl-2″-yl] propionic acid], which “effect on GPBP-EYFP-induced changes of vimentin, phospho p70-S6 kinase and E-cadherin” value is on record?
A: counteracted all these regulatory effects
